Like-named read-outs stand apart in the source and are kept apart here.
Assays:
[1] = test system: FtsZ in S. pyogenes ATCC 19615 cells; assay: Fluorescence microscopy FtsZ visualization in live cells; format: cell-based; details: 1 μg/mL (1.3 μM) BOFP, 5 minutes
Method: (§1) Fluorescence microscopy assay for visualizing FtsZ and monitoring cell division in live Gram-positive and Gram-negative bacterial cells using BOFP. All fluorescence microscopy experiments were conducted using an Olympus BX50 microscope equipped with an X-cite Exacte 200W mercury lamp, a 100× Olympus UPLSAPO oil immersion objective (1.40 aperture), and a Chroma ET-EGFP (FITC/Cy2) filter. Images were captured using a QImaging Retiga R3 charge-coupled device (CCD) camera and the Ocular-Version 2.0 software package (QImaging).
(§2) For visualizing FtsZ in Gram-positive bacteria using BOFP, the bacterial cells were grown to log-phase in media suitable for each individual pathogen. Specifically, S. aureus NRS705 was grown in tryptic soy broth (TSB), E. faecalis ATCC 29212 and E. faecium ATCC 19434 were grown in lactobacilli MRS broth, S. agalactiae ATCC 12386 and S. pneumoniae ATCC 49619 were grown in TH broth, and S. pyogenes ATCC 19615 was grown in CAMH broth supplemented with 3% (v/v) LHB. For each Gram-positive bacterial strain, a total of 1 mL of cell culture was centrifuged at 15,000×g for 1 minute and washed 2-3 times with 1 mL of PBS. After the final wash, the pelleted cells were resuspended in 500 μL of PBS containing 1 μg/mL of BOFP and incubated in the dark for 5 minutes at room temperature. The cells were then centrifuged at 15,000×g for 1 minute, washed twice with 1 mL of PBS, and subsequently resuspended in 200 μL of PBS. 8 μL of this final cell suspension was then spread on a 0.25 mm layer of 1.5% high-resolution agarose (Sigma) in PBS, which was mounted on a standard 75×25×1 mm microscope slide (Azer Scientific) using a 1.7×2.8×0.025 cm Gene Frame (ThermoFisher). A 24×40 mm cover slip (Azer Scientific) was then applied to the agarose pad to prepare the slide for microscopic visualization.

[2] = test system: FtsZ in S. pneumoniae ATCC 49619 cells; assay: as above; format: cell-based; details: 1 μg/mL (1.3 μM) BOFP, 5 minutes
Method: as §1, §2

[3] = test system: FtsZ in E. faecium ATCC 19434 cells; assay: as above; format: cell-based; details: 1 μg/mL (1.3 μM) BOFP, 5 minutes
Method: as §1, §2

[4] = molecular target: T1, FtsZ in E. faecalis ATCC 29212 cells (Enterococcus faecalis, UniProt O08439); assay: as above; format: cell-based; details: 1 μg/mL (1.3 μM) BOFP, 5 minutes
T1 construct: endogenous in cells; host or cells: E. faecalis ATCC 29212
Method: as §1, §2

[5] = test system: FtsZ in S. agalactiae ATCC 12386 cells; assay: as above; format: cell-based; details: 1 μg/mL (1.3 μM) BOFP, 5 minutes
Method: as §1, §2

[6] = molecular target: T2, Streptococcus pneumoniae FtsZ (SpnFtsZ) (Streptococcus pneumoniae, UniProt A0A0H2ZNE0); assay: Fluorescence anisotropy binding of BOFP to FtsZ; details: for Kd: 50 mM Tris-HCl (pH 7.6), 50 mM KCl
T2 sequence (A0A0H2ZNE0 1-419): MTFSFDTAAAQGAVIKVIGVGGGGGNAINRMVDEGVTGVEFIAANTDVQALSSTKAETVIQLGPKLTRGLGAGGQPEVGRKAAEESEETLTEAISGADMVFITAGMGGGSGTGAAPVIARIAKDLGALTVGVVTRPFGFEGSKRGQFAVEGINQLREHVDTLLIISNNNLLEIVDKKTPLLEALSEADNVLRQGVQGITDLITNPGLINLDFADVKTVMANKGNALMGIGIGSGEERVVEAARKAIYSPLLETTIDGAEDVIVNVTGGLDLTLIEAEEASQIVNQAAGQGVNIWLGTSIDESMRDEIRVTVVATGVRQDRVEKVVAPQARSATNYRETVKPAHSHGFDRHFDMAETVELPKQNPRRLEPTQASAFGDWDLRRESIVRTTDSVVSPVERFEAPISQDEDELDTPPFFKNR
Method: (§3) Fluorescence anisotropy assay for determining the affinities and thermodynamics associated with the binding of BOFP to FtsZ proteins. Fluorescence anisotropy experiments were performed using an AVIV model ATF105 spectrofluorometer at 15, 25, or 37° C. In these experiments, bandwidths were set to 4 nm in both the excitation and emission directions, with the excitation and emission wavelengths being set at 488 nm and 510 nm, respectively. BOFP (0.1 μM) was titrated with increasing concentrations (ranging from 0 to 12 μM) of FtsZ in 120 μL of buffer containing 50 mM Tris-HCl (pH 7.6) and 50 mM KCl. After each protein addition, the samples were equilibrated for 3 minutes, whereupon the fluorescence anisotropy was measured.
(§4) [formula] In this equation, r0 is the anisotropy of the protein-free compound, r∞ is the anisotropy of the compound in the presence of an infinite concentration of FtsZ, [C]tot is the total concentration of the compound, and [P]tot is the total concentration of protein with each addition. These analyses yielded the equilibrium dissociation constant (Kd) for each binding reaction.
(§5) The binding free energy (ΔG) at temperature T was derived from the corresponding Kd value determined at T using the following relationship:
(§6) [formula] The binding enthalpy (ΔH) and entropy (ΔS) were derived from linear fits of the ln(1/Kd) vs. 1/T plots shown in FIGS. 3f and 5e using the following relationship:
(§7) A quartz ultra-micro cell (Hellma) with a 2×5 mm aperture and a 15 mm center height was used for all measurements. The pathlengths in the excitation and emissions directions were 1 and 0.2 cm, respectively. All steady-state anisotropy experiments were conducted in at least triplicate, with the reported anisotropies reflecting the average values.

[7] = molecular target: T3, Enterococcus faecium FtsZ (EfmFtsZ) (Enterococcus faecium, UniProt Q3Y2I1); assay: Fluorescence anisotropy binding of BOFP to FtsZ; details: for Kd: 50 mM Tris-HCl (pH 7.6), 50 mM KCl
T3 sequence (Q3Y2I1 1-413): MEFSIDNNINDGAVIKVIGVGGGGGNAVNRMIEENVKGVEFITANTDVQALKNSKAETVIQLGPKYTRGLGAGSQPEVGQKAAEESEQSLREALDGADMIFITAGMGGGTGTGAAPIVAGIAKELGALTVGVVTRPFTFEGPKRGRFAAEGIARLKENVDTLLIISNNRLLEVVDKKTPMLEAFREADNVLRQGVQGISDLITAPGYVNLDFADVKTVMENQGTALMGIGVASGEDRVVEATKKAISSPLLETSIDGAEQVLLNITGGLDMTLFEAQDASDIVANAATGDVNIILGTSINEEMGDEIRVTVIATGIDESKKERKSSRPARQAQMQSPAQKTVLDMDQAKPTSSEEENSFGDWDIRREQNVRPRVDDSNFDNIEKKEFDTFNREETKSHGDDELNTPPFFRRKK
Method: as §3, §4, §5, §6, §7

[8] = linear fit of ln(1/Kd) vs. 1/T, Eq. 3

T1 sequence (O08439 whole entry): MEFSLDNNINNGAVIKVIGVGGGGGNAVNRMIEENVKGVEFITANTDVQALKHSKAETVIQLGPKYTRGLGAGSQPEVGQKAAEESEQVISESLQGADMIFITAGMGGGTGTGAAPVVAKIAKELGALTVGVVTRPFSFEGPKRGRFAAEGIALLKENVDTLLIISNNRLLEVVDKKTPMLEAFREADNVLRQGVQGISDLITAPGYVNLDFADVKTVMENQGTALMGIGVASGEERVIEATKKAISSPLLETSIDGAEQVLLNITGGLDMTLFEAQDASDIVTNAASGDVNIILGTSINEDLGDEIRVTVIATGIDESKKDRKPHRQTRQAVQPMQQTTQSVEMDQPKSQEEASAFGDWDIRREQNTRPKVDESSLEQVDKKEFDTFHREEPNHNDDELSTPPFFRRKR

Compound: CC1=CC(C)=[N+]2C1=Cc1ccc(CCC(=O)OCC(Oc3ccc(F)c(C(N)=O)c3F)c3nc(-c4ccc(C(F)(F)F)cc4)c(Br)o3)n1[B-]2(F)F (stereo not drawn) [BOFP, 2-(5-bromo-4-(4-(trifluoromethyl)phenyl)-oxazol-2-yl)-2-(3-carbamoyl-2,4-difluorophenoxy)ethyl 3-(5,5-difluoro-7,9-dimethyl-5H-5λ^4,6λ^4-dipyrrolo[1,2-c:2′,1′-f][1,3,2]diazaborinin-3-yl)propanoate]
- FtsZ labeling (fluorescence staining) in live cells [1]: bright bands of fluorescence staining were clearly visible at midcell
- FtsZ labeling (fluorescence staining) in live cells [2]: bright bands of fluorescence staining were clearly visible at midcell
- FtsZ labeling (fluorescence staining) in live cells [3]: bright bands of fluorescence staining were clearly visible at midcell
- FtsZ labeling (fluorescence staining) in live cells [4]: bright bands of fluorescence staining were clearly visible at midcell
- FtsZ labeling (fluorescence staining) in live cells [5]: bright bands of fluorescence staining were clearly visible at midcell
- ΔS contribution to the observed ΔG of binding [6]: > 50%
- Kd ([6]; 15° C., read-out: Kd −15° C.): 3.02 ± 0.3 µM
- Kd ([6]; 25° C., read-out: Kd −25° C.): 3.49 ± 0.25 µM
- Kd ([6]; 37° C., read-out: Kd −37° C.): 3.81 ± 0.69 µM
- ΔG ([6]; T = 310K (37° C.), Eq. 2): -7.7 ± 0.1 kcal/mol
- ΔH [6, 8]: -1.9 ± 0.3 kcal/mol
- ΔS [6, 8]: +18.7 ± 1.2 cal/mol · K
- ΔS contribution to the observed ΔG of binding [7]: > 50%
- Kd ([7]; 15° C., read-out: Kd −15° C.): 2.5 ± 0.14 µM
- Kd ([7]; 25° C., read-out: Kd −25° C.): 2.62 ± 0.08 µM
- Kd ([7]; 37° C., read-out: Kd −37° C.): 3.14 ± 0.22 µM
- ΔH [7, 8]: -1.9 ± 0.6 kcal/mol
- ΔS [7, 8]: +19.2 ± 1.9 cal/mol · K

From US12061201B2, “Fluorescent probes for the visualization of FtsZ in gram-positive and gram-negative bacterial pathogens” (Rutgers, The State University of New Jersey, priority 2019, dated 2024)
